Experimental data as given in US10131652B2, “Pyrimidinyloxy benzene derivatives as herbicides” (E. I. DU PONT DE NEMOURS AND COMPANY, priority 2014, dated 2018).

Columns and labels:
Format in all cases: in vivo
[1] = system: galium (catchweed bedstraw, Galium aparine); experiment: Test B postemergence plant response
Procedure, shortened: (§1)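 Plants grown in pots of loam soil–sand blend were sprayed postemergence with formulated test chemicals at 2 to 10 cm height, one- to two-leaf stage. After about 10 days in a greenhouse, injury was visually rated against untreated controls on a 0 to 100 scale (0 no effect, 100 complete control).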

[2] = system: blackgrass (Alopecurus myosuroides); experiment: Test B postemergence plant response
Procedure, shortened: as §1

[3] = system: pigweed (Amaranthus retroflexus); experiment: Test B pre-/postemergence plant response
Excerpt: (§2) Seeds of plant species selected from bamyardgrass (Echinochloa crus-galli), kochia (Kochia scoparia), ragweed (common ragweed, Ambrosia elatior), Italian ryegrass (Lolium multiflorum), large (Lg) crabgrass (Digitaria sanguinalis), giant foxtail (Setaria faberii), momingglory (Ipomoea spp.), pigweed (Amaranthus retroflexus), velvetleaf (Abutilon theophrasti), wheat (Triticum aestivum), and corn (Zea mays) were planted into a blend of loam soil and sand and treated preemergence with a directed soil spray using test chemicals formulated in a non-phytotoxic solvent mixture which included a surfactant. At the same time, plants selected from these crop and weed species and also blackgrass (Alopecurus myosuroides), and galium (catchweed bedstraw, Galium aparine) were planted in pots containing the same blend of loam soil and sand and treated with postemergence applications of test chemicals formulated in the same manner. Plants ranged in height from 2 to 10 cm and were in the one- to two-leaf stage for the postemergence treatment. Treated plants and untreated controls were maintained in a greenhouse for approximately 10 days, after which time all treated plants were compared to untreated controls and visually evaluated for injury. Plant response ratings, summarized in Table B, are based on a 0 to 100 scale where 0 is no effect and 100 is complete control. A dash (-) response means no test result.

[4] = system: giant foxtail (Setaria faberii); experiment: Test B pre-/postemergence plant response
Excerpt: as §2

corn (Zea mays) = experiment: Test B pre-/postemergence plant response
Excerpt: as §2

[5] = system: wheat (Triticum aestivum); experiment: Test B pre-/postemergence plant response
Excerpt: as §2

[6] = system: ragweed (common ragweed, Ambrosia elatior); experiment: Test B pre-/postemergence plant response
Excerpt: as §2

[7] = system: barnyardgrass (Echinochloa crus-galli); experiment: Test B pre-/postemergence plant response
Excerpt: as §2

[8] = system: Italian ryegrass (Lolium multiflorum); experiment: Test B pre-/postemergence plant response
Excerpt: as §2

kochia (Kochia scoparia) = experiment: Test B pre-/postemergence plant response
Excerpt: as §2

[9] = system: ducksalad (Heteranthera limosa); experiment: Test C flooded paddy test plant response; conditions: Flood, 250 g ai/ha; scale of 0 to 100 where 0 is no effect and 100 is complete control; 13 to 15 days
Procedure, shortened: (§3)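 Scale 0 (no effect) to 100 (complete control), assigned visually versus controls after 13–15 d greenhouse. Application: directly to paddy water, 3 cm flood depth kept constant, 2-leaf stage.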

[10] = system: small-flower umbrella sedge (Cyperus difformis); experiment: Test C flooded paddy test plant response; conditions: Flood, 250 g ai/ha; scale of 0 to 100 where 0 is no effect and 100 is complete control; 13 to 15 days
Procedure, shortened: as §3

[11] = system: barnyardgrass (Echinochloa crus-galli); experiment: Test C flooded paddy test plant response; conditions: Flood, 250 g ai/ha; scale of 0 to 100 where 0 is no effect and 100 is complete control; 13 to 15 days
Procedure, shortened: as §3

rice (Oryza sativa) = experiment: Test C flooded paddy test plant response; conditions: Flood, 250 g ai/ha; scale of 0 to 100 where 0 is no effect and 100 is complete control; 13 to 15 days
Procedure, shortened: as §3

[12] = Postemergence, 1000 g ai/ha, 0 to 100 scale (0 no effect, 100 complete control)
[13] = Preemergence, 1000 g ai/ha, 0 to 100 scale (0 no effect, 100 complete control)
[14] = 125 g ai/ha, postemergence, 0 to 100 scale, 0 no effect, 100 complete control
[15] = Postemergence, 31 g ai/ha, 0 to 100 scale (0 no effect, 100 complete control)
[16] = 31 g ai/ha, Preemergence, 0 to 100 scale where 0 is no effect and 100 is complete control
[17] = Preemergence, 125 g ai/ha, 0 to 100 scale (0 no effect, 100 complete control)
[18] = 31 g ai/ha, Postemergence, 0 to 100 scale, 0 no effect, 100 complete control
[19] = Preemergence, 125 g ai/ha, 0 to 100 scale where 0 is no effect and 100 is complete control

| Compound | Ducksalad plant response rating [9] | Sedge, Umbrella plant response rating [10] | Barnyardgrass plant response rating [11] | Rice plant response rating (rice (Oryza sativa)) | Plant response rating, Galium [1, 14] | Plant response rating, Galium [1, 15] | Plant response rating, Blackgrass [2, 14] | Plant response rating, Pigweed [3, 16] | Plant response rating, Pigweed [3, 14] | Plant response rating, Foxtail, Giant [4, 16] | Plant response rating, Foxtail, Giant [4, 14] | Plant response rating, Corn (corn (Zea mays); [14]) | Plant response rating, Wheat [5, 14] | Plant response rating, Ragweed [6, 16] | Plant response rating, Ragweed [6, 14] | Plant response rating, Barnyardgrass [7, 16] | Plant response rating, Barnyardgrass [7, 14] | Plant response rating, Ryegrass, Italian [8, 16] | Plant response rating, Ryegrass, Italian [8, 14] | Plant response rating, Kochia (kochia (Kochia scoparia); [14]) | other results |
| --- | --- | --- | --- | --- | --- | --- | --- | --- | --- | --- | --- | --- | --- | --- | --- | --- | --- | --- | --- | --- | --- |
| Cc1cc(-c2ccccc2Oc2ncc(Cl)cn2)sn1 [Compound 171] | 0 | 0 | 0 | 0 |  |  |  |  |  |  |  |  |  |  |  |  |  |  |  |  | Plant response rating, Galium [1, 12]: 100; Plant response rating, Blackgrass [2, 12]: 80; Plant response rating, Pigweed [3, 12]: 100; Plant response rating, Pigweed [3, 13]: 100; Plant response rating, Foxtail, Giant [4, 12]: 100; Plant response rating, Foxtail, Giant [4, 13]: 100; Plant response rating, Corn (corn (Zea mays); [12]): 10; Plant response rating, Wheat [5, 12]: 30; Plant response rating, Ragweed [6, 12]: 30; Plant response rating, Ragweed [6, 13]: 0; Plant response rating, Barnyardgrass [7, 12]: 30; Plant response rating, Barnyardgrass [7, 13]: 70; Plant response rating, Ryegrass, Italian [8, 12]: 10; Plant response rating, Ryegrass, Italian [8, 13]: 10; Plant response rating, Kochia (kochia (Kochia scoparia); [12]): 100; Plant response rating, Kochia (kochia (Kochia scoparia); [13]): 90 |
| Fc1cnc(Oc2ccccc2-c2cc(C(F)F)no2)nc1 [Compound 210] | 85 | 40 | 0 | 0 | 90 | 50 | 30 | 100 | 80 | 40 | 40 | 10 | 20 | 0 | 30 | 10 | 0 | 0 | 0 | 80 | Plant response rating, Blackgrass [2, 15]: 10; Plant response rating, Pigweed [3, 15]: 50; Pigweed plant response rating [3, 17]: 100; Plant response rating, Foxtail, Giant [4, 15]: 0; Foxtail, Giant plant response rating [4, 17]: 90; Plant response rating, Corn (corn (Zea mays); [15]): 0; Plant response rating, Wheat [5, 15]: 0; Plant response rating, Ragweed [6, 15]: 10; Ragweed plant response rating [6, 17]: 20; Plant response rating, Barnyardgrass [7, 15]: 0; Barnyardgrass plant response rating [7, 17]: 80; Plant response rating, Ryegrass, Italian [8, 15]: 0; Ryegrass, Italian plant response rating [8, 17]: 10; Plant response rating, Kochia (kochia (Kochia scoparia); [16]): 50; Plant response rating, Kochia (kochia (Kochia scoparia); [15]): 50; Kochia plant response rating (kochia (Kochia scoparia); [17]): 90 |
| Clc1cnc(Oc2ccccc2-c2cc(Cl)ccn2)nc1 [Compound 174] | 0 | 0 | 0 | 0 | 70 | 60 | 50 | 60 | 50 | 0 | 0 | 0 | 0 | 0 | 30 | 0 | 10 | 0 | 0 | 70 | Plant response rating, Blackgrass [2, 15]: 40; Plant response rating, Pigweed [3, 15]: 50; Pigweed plant response rating [3, 17]: 80; Plant response rating, Foxtail, Giant [4, 15]: 0; Foxtail, Giant plant response rating [4, 17]: 40; Plant response rating, Corn (corn (Zea mays); [15]): 0; Plant response rating, Wheat [5, 15]: 0; Plant response rating, Ragweed [6, 15]: 20; Ragweed plant response rating [6, 17]: 0; Plant response rating, Barnyardgrass [7, 15]: 0; Barnyardgrass plant response rating [7, 17]: 0; Plant response rating, Ryegrass, Italian [8, 15]: 0; Ryegrass, Italian plant response rating [8, 17]: 0; Plant response rating, Kochia (kochia (Kochia scoparia); [15]): 60; Kochia plant response rating (kochia (Kochia scoparia); [17]): 0 |
| COc1cccc(Oc2ncc(F)cn2)c1-c1cc(C)no1 [Compound 111] | 0 | 0 | 0 | 0 | 20 |  | 40 | 10 | 20 | 0 | 60 | 10 | 0 | 0 | 20 | 0 | 10 | 0 | 0 | 30 | Plant response rating, Galium [1, 18]: 10; Plant response rating, Blackgrass [2, 18]: 0; Plant response rating, Pigweed [3, 18]: 0; Plant response rating, Foxtail, Giant [4, 18]: 0; Plant response rating, Foxtail, Giant [4, 19]: 50; Plant response rating, Corn (corn (Zea mays); [18]): 0; Plant response rating, Wheat [5, 18]: 0; Plant response rating, Ragweed [6, 18]: 10; Plant response rating, Barnyardgrass [7, 18]: 0; Plant response rating, Barnyardgrass [7, 19]: 20; Plant response rating, Ryegrass, Italian [8, 18]: 0; Plant response rating, Kochia (kochia (Kochia scoparia); [18]): 20; Plant response rating, Kochia (kochia (Kochia scoparia); [16]): 0; Plant response rating, Kochia (kochia (Kochia scoparia); [19]): 10 |
| Clc1cnc(Oc2ccccc2-c2cnccn2)nc1 [Compound 163] | 0 | 0 | 0 | 0 | 30 | 20 | 20 | 0 | 30 | 0 | 10 | 10 | 0 | 0 | 30 | 0 | 0 | 0 | 0 | 50 | Plant response rating, Blackgrass [2, 15]: 20; Plant response rating, Pigweed [3, 15]: 20; Pigweed plant response rating [3, 17]: 30; Plant response rating, Foxtail, Giant [4, 15]: 0; Foxtail, Giant plant response rating [4, 17]: 0; Plant response rating, Corn (corn (Zea mays); [15]): 0; Plant response rating, Wheat [5, 15]: 0; Plant response rating, Ragweed [6, 15]: 30; Ragweed plant response rating [6, 17]: 40; Plant response rating, Barnyardgrass [7, 15]: 0; Barnyardgrass plant response rating [7, 17]: 0; Plant response rating, Ryegrass, Italian [8, 15]: 0; Ryegrass, Italian plant response rating [8, 17]: 0; Plant response rating, Kochia (kochia (Kochia scoparia); [16]): 0; Plant response rating, Kochia (kochia (Kochia scoparia); [15]): 10; Kochia plant response rating (kochia (Kochia scoparia); [17]): 0 |
